From patent US11299538B2, “Anti-IGF antibodies” (Boehringer Ingelheim International GmbH, priority 2008, dated 2022) come the findings set out here.

Molecules are shown by their SMILES.

For this assay, the system named is SK-ES-1 cells. Nature of the assay: Ewing's sarcoma-derived cell line growth assay, combination with rapamycin. It counts as cell-based. The note with it: Homo sapiens, SK-ES1, 100 nM (each agent), FIG. 8, read-out: proliferation inhibition. As to the method:
The typical concentrations used are 30, 10, 3.3, 1.1, 0.37, and 0.12 μg/ml (or 100, 10, 1, 0.1, 0.01, 0.001 nM rapamycin and test antibody for combination studies) and each dilution is performed in triplicate wells. The cells plus antibody are then incubated for 120 hours after which time the relative cell number in each well is determined using the CellTiter-Glo luminescent cell viability assay (Promega). Luminescence (LU=Luminescence Units) is recorded using a XFluor GENios Pro 4 and for data analysis the mean value from triplicate wells is taken and fitted by iterative calculations using a sigmoidal curve analysis program (Graph Pad Prism) with variable Hill slope.

In the case of `CO[C@H]1C[C@@H]2CC[C@@H](C)[C@@](O)(O2)C(=O)C(=O)N2CCCC[C@H]2C(=O)O[C@H]([C@H](C)C[C@@H]2CC[C@@H](O)[C@H](OC)C2)CC(=O)[C@H](C)/C=C(\C)[C@@H](O)[C@@H](OC)C(=O)[C@H](C)C[C@H](C)/C=C/C=C/C=C/1C` [rapamycin, reference compound], the inhibition at 0.1 µM was roughly 60%.
